Here are results for two molecules from publication PMC9138102, “The Role of ZIP9 and Androgen Receptor in the Establishment of Tight Junctions between Adult Rat Sertoli Cells” (Biology, 2022).

The subject of assay [1] is Erk1/2. Briefly: Erk1/2 phosphorylation in PASC1 cells, Western blot. It is filed as cell-based, rat. Here is the method:
A total of 3 × 10^4 PASC1 cells/dish were grown in 5 cm culture dishes as described above. Cells were then incubated for 24 h with 1% FCS before testosterone or P1 were added to the medium to reach the desired final concentration. The ethanol vehicle for testosterone was added to the peptide-treated cells and untreated controls at the same concentration as in cell cultures treated with testosterone. After 24 h, the medium was aspired and the cells were washed twice in ice-cold DPBS. Cells were then incubated with 400 µL lysis buffer (Cell Signaling Technologies, Frankfurt, Germany) containing 1 µM PMSF, 1× protease inhibitor cocktail (Roche, Mannheim, Germany), and 2 µg/mL pepstatin that was added immediately before use. All further steps were carried out on ice. After 5 min of incubation, cells were detached using a cell scraper. The suspensions were then transferred into 1.5 mL vials and sonicated 5 times for 1 s each with intervals of 1 s. After centrifugation of the lysates at 4 °C and 13,000× g for 10 min, the protein concentration in the supernatants was determined at 540 nm using a bicinchoninic acid protein assay reagent kit (Pierce, Southfield, MI, USA) and a Labsystems (Helsinki, Finland) plate reader. The BSA protein standard contained lysis buffer at the same concentration as in the samples from the cell lysates. Supernatants were then aliquoted and maintained at −20 °C until further use.
A total of 10 µg protein from PASC1 cell lysates was run on SDS-PAGE gels containing 10% acrylamide and 0.3% N,N′-methylene-bis-acrylamide. Biotinylated proteins (Cell Signaling Technologies) were run in parallel as molecular weight markers. After electrophoresis, proteins were semi-dry electro-blotted onto PVDF membranes (Merck Chemicals GmbH, Schwalbach, Germany) for 30 min at […]. The membranes were then incubated for 1 h at room temperature in 5% (w/w) non-fat dry milk. Primary antibodies against phospho-Erk1/2, total-Erk1/2, or beta-actin were diluted according to the recommendations of the manufacturers and then incubated with the PVDF membranes overnight at 4 °C (see Supplementary Table S1 for all antibodies with dilutions and manufacturers). After washing in DPBS, the membranes were incubated under continuous mild agitation on an orbital shaker for 60 min at room temperature with a horseradish peroxidase-conjugated secondary antibody. An anti-biotin, HRP-conjugated antibody at a dilution of 1:2000 was also included in the mixture containing the secondary antibody in order to detect the biotinylated molecular weight marker. Antibody-labeled protein bands were visualized by enhanced chemiluminescence.
Figure 5 Western blot analysis of phospho-Erk1/2. PASC1 cells were stimulated for 24 h with various concentrations of testosterone or IAPG. (A) Phospho-Erk1/2 detection after stimulation with testosterone and (B) after stimulation with IAPG. […] For each diagram: n = 3; means ± SEM. Original Western blots are shown in Supplementary Figure S1.
A general note: Immunoblotting shows a protein as a band on a membrane.

The next assay has as its system JAM-3-specific mRNA. Description: JAM-3 mRNA expression in PASC1 cells, qRT-PCR. It is filed as cell-based, rat. As to conditions: 10 nM testosterone or 10 µM IAPG, 24 h, n = 3 × 2. How it is done: Primers were designed with http://www.ncbi.nlm.nih.gov/tools/primer-blast (Accessed on 28 February 2022) and were all intron-spanning. Total RNA was isolated from PASC1 with the RNeasy Mini-Kit (Qiagen, Hilden, Germany) and subjected to DNase I treatment as described by the manufacturer. The Reverse Transcription-System first strand cDNA synthesis kit (Invitrogen, Darmstadt, Germany) was used for cDNA synthesis, as recommended. Quantitative real-time PCR (qRT-PCR) amplification was performed in duplicate with iQ TM SYBR Green Super-mix (Bio-Rad; Munich; Germany) on the iCycler iQ System (Bio-Rad). After an initial heating at 94 °C for 5 min, 40 amplification cycles were performed consisting of an initial denaturation of the DNA double strands at 94 °C for 14 s, an annealing phase of the primers at 59 °C for 30 s, and extension of the primers for 15 s at 72 °C. A finalizing extension at 72 °C was carried out for 10 min. Gene expression was measured after reaching the ct value and calculated using the Delta–Delta Ct method. Detection of GAPDH-specific mRNA/cDNA served as normalization of the quantification. Oligonucleotides used in the qRT-PCR, their annealing position, and the expected size of the amplificates are listed in Supplementary Table S2.
For silencing ZIP9 or AR expression, PASC1 cells were treated with commercially available siRNA directed against the expression of ZIP9 or the AR by following the manufacturer’s protocol (Silencer ® Select, siRNA Invitrogen, Darmstadt, Germany). The following oligonucleotides were used: 5′ […]tt3′ and 5′ […]ta 3′ (ZIP9-siRNA for ZIP9 silencing) and 5′[…]tt3′ plus 5′ […]ag 3′ (AR-siRNA for AR silencing). Negative control siRNA (nc-siRNA) was provided in the siRNA kit from the same manufacturer. After incubation of PASC1 for 48 h with ZIP9-siRNA, AR-siRNA, or nc-siRNA, preparation of samples for qRT-PCR, TER measurement, or immunofluorescence experiments were carried out as described above.
A general note: In qPCR the cycle at which signal appears reflects the starting amount.

In assay [2] the test system is Erk1/2. The arrangement: method as in PMID 35053053. The following applies: Sertoli cell line 93RS2, cited from earlier work. An excerpt:
Activation of Erk1/2 by phosphorylation occurs in the so-called non-classical signaling pathway of testosterone.

Assay [3] concerns androgen binding site ZIP9 of the Sertoli cell line 93RS2. On the set-up: method as in PMID 35053053, PMID 35053017. The following applies: 93RS2 / L6 (cell line not separately stated); cited from earlier work.

Like-named read-outs stand apart in the source and are kept apart here.

A word on the EC50: it is the concentration at which the effect is half-maximal. Read a low EC50 as a more potent agent.

As for `C[C@]12CC[C@H]3[C@@H](CCC4=CC(=O)CC[C@@]43C)[C@@H]1CC[C@@H]2O` [testosterone], the “Total expression of Erk1/2 or beta-actin” value with Erk1/2 [1] is listed as “did not affect total expression of Erk1/2 or beta-actin”. In addition, the EC50 with Erk1/2 [1] (Rattus norvegicus, 24 h per legend, within 30 min per text, 10^-10 to 10^-7 M, n = 3, means ± SEM) came to 350 pM. In addition, the “Concentration needed for maximum stimulation of Erk1/2 phosphorylation” value in the assay with Erk1/2 [1] (testosterone) came out at 0.01 µM. The “JAM-3 mRNA expression” value was “upregulated” in the assay with JAM-3-specific mRNA (AR-siRNA), “remained at basal levels” with JAM-3-specific mRNA (ZIP9-siRNA) and “upregulated” in the assay on JAM-3-specific mRNA (nc-siRNA). Also, in the assay on Erk1/2 [2] (testosterone), the “Concentration for maximum Erk1/2 phosphorylation” value was 0.01 µM. Moreover, in assay [3], the “Prevention of T-BSA-FITC binding” value was “Its binding can be prevented”.
Turning to IAPG, in the assay on Erk1/2 [1], the “Total expression of Erk1/2 or beta-actin” value was “did not affect total expression of Erk1/2 or beta-actin”. The “Concentration needed for maximum stimulation of Erk1/2 phosphorylation” value in the assay with Erk1/2 [1] (IAPG) was determined as 10 µM. Further, the “JAM-3 mRNA expression” value in the assay with JAM-3-specific mRNA (AR-siRNA) was “upregulated”; in the assay on JAM-3-specific mRNA (ZIP9-siRNA) it was “remained at basal levels”; in the assay with JAM-3-specific mRNA (nc-siRNA), “upregulated”. Moreover, the “Concentration for maximum Erk1/2 phosphorylation” value in the assay on Erk1/2 [2] (IAPG) is 10 µM. Further, the “Prevention of T-BSA-FITC binding” value in assay [3] is “Its binding can be prevented”.
